According to US8361968B2 (Takeda Pharmaceutical Company Limited, priority 2002, dated 2013):
Square brackets hold non-standard residues; d marks the D form. Peptide text beside a SMILES is read from it. * marks the point of attachment. Propanoyl(3-(3-pyridyl)) = O=C(CCc1cccnc1)*; Arg(Me) = CNC(=N)NCCC[C@H](N)C(=O)O; d4Pal = N[C@H](Cc1ccncc1)C(=O)O; azaGly = NNC(=O)O

Experiments:
[1] = system: immature rat; assay: Induction of ovulation in immature rat using metastin derivatives; format: in vivo, rats; conditions: for number of oocytes in average per rat / dose to be administered for induction of ovulation equivalent to hCG: eCG-primed immature female rats; for dose to be administered for induction of ovulation equivalent to hCG: s.c.
Procedure: Equine chorionic gonadotropin (eCG, serotropin, Dainippon Pharmaceutical Co., Ltd.) was dissolved in saline (Otsuka Pharmaceutical Co., Ltd.) in a concentration of 100 IU/mL. Using a 1 mL tuberculin syringe with a 26-gauge needle (both by Terumo Co., Ltd.), eCG was subcutaneously injected into the dorsal area of female Wistar rats of 23 days old after birth (Charles River Japan, Inc.) in a dose of 10 IU/animal, during 9:00 to 10:00 AM. As shown below, the animal was grouped 47 to 48 hours after the eCG injection and the drugs were given to these groups, respectively.
Group B (5 rats): Compound No. 305 was dissolved in saline at 33.3 nmol/mL and the solution was subcutaneously injected into the back in a dose of 6.7 nmol/animal.
Group C (5 rats): Compound No. 305 was dissolved in saline at 10.0 nmol/mL and the solution was subcutaneously injected into the back in a dose of 2.0 nmol/animal.
Group D (5 rats): Compound No. 322 was dissolved in saline at 33.3 nmol/mL and the solution was subcutaneously injected into the back in a dose of 6.7 nmol/animal.
Group E (5 rats): Compound No. 322 was dissolved in saline at 10.0 nmol/mL and the solution was subcutaneously injected into the back in a dose of 2.0 nmol/animal.
Group F (6 rats): Saline was subcutaneously injected into the back in a dose of 200 μL/animal.
After administration of these drugs, the animal was sacrificed by decapitation after 24 to 25 hours to recover blood, bilateral oviducts and uterus. In collecting the blood, 90 μL of 10 KIU/mL aprotinin solution (Trasylol, Bayer) containing 3 mg/ml EDTA had been previously filled in a tube for recovery to prevent blood clotting. After blood recovery, the blood was thoroughly blended and the mixture was centrifuged at 2,000 G for 25 minutes. The supernatant was recovered and used as a plasma sample.
The number of oocytes was counted by referring to the method described in Eur. J. Endocrinol., 138, 594-600 (1998). That is, where retained oocytes in the oviducal ampulla were confirmed by stereomicroscopic observation of the oviduct, the ampulla was punctured with a 27-gauge syringe needle (Terumo) to retrieve the oocytes. After granulosa cells surrounding the oocytes were removed by trypsin treatment, the number of oocytes was counted. Where the retained oocytes in the oviducal ampulla were not confirmed by stereomicroscopic observation of the oviduct, a 27-gauge syringe needle with the polished tip was inserted into the tubal ostium and more than 400 μL of saline was flushed into the oviduct and uterine for rinsing. Then, the presence or absence of oocytes in the effluent was observed.

[2] = in vitro; conditions: female, Balb/c, mouse, serum
Procedure: Blood was drawn from Balb/c mice (female) of 8 weeks old, settled at 37° C. for 30 minutes and centrifuged at 13000 rpm for 10 minutes to give the serum as the supernatant. The serum thus obtained was frozen-stored at −80° C.
The stability test was performed by addition of 5 nmol of Compound (5 μL of aqueous solution) to 45 μL of serum and then settlement of the mixture at 37° C. The settlement was made at 3 points of time, including 2, 10 and 30 minutes. The sample after the settlement was boiled for 3 minutes and cooled on an ice bath. After 200 μL of acetonitrile/water (3/1) was added to the sample, the mixture was ultrasonicated for 5 minutes and then centrifuged at 5000 rpm for 1 minute. After 150 μL of the supernatant was diluted with 250 μL of distilled water, insoluble matters were removed by filtration through a filter having a pore size of 0.45 μm and 200 μL of the filtrate was applied on HPLC (220 nm) to determine the peak area of Compound. A ratio of the peak area to the area when Compound was treated for 0 minute under the same conditions was calculated as a mean value in 4 respective runs to determine the residual ratio. Next, by taking the calculated residual ratio on the ordinate and the time on the abscissa, a graph was prepared and approximated by an exponential function.
The preparative HPLC used was the LC-VP series manufactured by Shimadzu Corporation and Wakosil-II 5C18 HG (4.6 mm×100 mm) manufactured by Wako Pure Chemical Industries, Ltd. was used as the column. Eluant A (0.1% TFA-containing water) and eluant B (0.1% TFA-containing acetonitrile) were used as eluants. Analysis was performed by linear density gradient elution (25 minutes) at a flow rate of 1.0 ml/min. using eluants A/B: 100/0-0/50.

[3] = target: hOT7T175 (Homo sapiens, UniProt Q969F8, L364H); assay: Intracellular Ca ion level-increasing activity using FLIPR in hOT7T175/CHO; format: cell-based; design: expressed in transfected cells; host or cells: CHO/dhfr- cells, obtained from ATCC; conditions: relative, Metastin (1-54) = 1
hOT7T175, sequence (Q969F8 whole entry L364H): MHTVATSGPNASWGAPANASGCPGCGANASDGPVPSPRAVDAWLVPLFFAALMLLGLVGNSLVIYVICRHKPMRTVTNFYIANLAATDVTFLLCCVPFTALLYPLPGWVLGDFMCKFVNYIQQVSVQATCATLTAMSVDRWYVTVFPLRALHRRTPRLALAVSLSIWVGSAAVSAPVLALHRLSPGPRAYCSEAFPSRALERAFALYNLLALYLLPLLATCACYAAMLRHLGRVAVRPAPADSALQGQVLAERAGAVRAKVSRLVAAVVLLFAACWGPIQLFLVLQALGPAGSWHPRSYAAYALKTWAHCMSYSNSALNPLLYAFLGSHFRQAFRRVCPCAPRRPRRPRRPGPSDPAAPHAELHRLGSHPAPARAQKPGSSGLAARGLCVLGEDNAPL

CNC(=N)NCCC[C@H](NC(=O)[C@H](CC(C)C)NC(=O)NNC(=O)[C@H](Cc1ccccc1)NC(=O)[C@H](CO)NC(=O)[C@H](CC(N)=O)NC(=O)[C@@H](Cc1ccncc1)NC(=O)[C@H](N)Cc1ccc(O)cc1)C(=O)N[C@@H](Cc1ccccc1)C(N)=O [Compound No. 305, D-Tyr-D-Pya(4)-Asn-Ser-Phe-AzaGly-Leu-Arg(Me)-Phe-NH2] (H-[dY][d4Pal]NSF[azaGly]L[Arg(Me)]F-NH2)
level of estradiol contained in plasma ([1]; 2.0 nmol/animal s.c. (FIG. 21)): no difference | level of progesterone in blood ([1]; 2.0 nmol/animal s.c. (FIG. 22)): less than a half of the level in Group A | level of estradiol contained in plasma ([1]; 6.7 nmol/animal s.c. (FIG. 21)): no difference | level of progesterone in blood ([1]; 6.7 nmol/animal s.c. (FIG. 22)): less than a half of the level in Group A | number of oocytes in average per rat ([1]; 2.0 nmol/animal s.c.): 29.4 oocytes | number of oocytes in average per rat ([1]; 6.7 nmol/animal s.c.): 32.6 oocytes | dose to be administered for induction of ovulation equivalent to hCG [1]: at least 2.0 nmol/animal | half-life at 100 µM [2]: 1.11 h | Specific Activity (intracellular Ca ion level-increasing activity) [3]: 5

CNC(=N)NCCC[C@H](NC(=O)[C@H](CC(C)C)NC(=O)NNC(=O)[C@H](Cc1ccccc1)NC(=O)[C@H](CO)NC(=O)[C@H](CC(N)=O)NC(=O)CCc1cccnc1)C(=O)N[C@@H](Cc1ccccc1)C(N)=O [Compound No. 322, 3-Pyridylpropionyl-Asn-Ser-Phe-AzaGly-Leu-Arg(Me)-Phe-NH2] ({Propanoyl(3-(3-pyridyl))}-NSF[azaGly]L[Arg(Me)]F-NH2)
rats ovulated ([1]; 2.0 nmol/animal s.c.): 3 out of 5 | level of estradiol contained in plasma ([1]; 2.0 nmol/animal s.c. (FIG. 21)): tendency to show a higher level in rats with no ovulation induction | level of progesterone in blood ([1]; 2.0 nmol/animal s.c. (FIG. 22)): very low level | level of estradiol contained in plasma ([1]; 6.7 nmol/animal s.c. (FIG. 21)): no difference | level of progesterone in blood ([1]; 6.7 nmol/animal s.c. (FIG. 22)): less than a half of the level in Group A | number of oocytes in average per rat ([1]; 2.0 nmol/animal s.c.): 11.6 oocytes | number of oocytes in average per rat ([1]; 6.7 nmol/animal s.c.): 29.6 oocytes | dose to be administered for induction of ovulation equivalent to hCG [1]: at least 6.7 nmol/animal | half-life at 100 µM [2]: 1.57 h | Specific Activity (intracellular Ca ion level-increasing activity) [3]: 1
